The source made the active and inactive calls. No cut-off for these calls is given here.

These results are taken from ChEMBL document CHEMBL4043194, “Nrf2 activators from Glycyrrhiza inflata and their hepatoprotective activities against CCl4-induced liver injury in mice” (Bioorg Med Chem, 2017).

Data set [1] is described as follows: Half life in Sprague-Dawley rat at 50 mg/kg, po administered as single dose measured after 0.08 to 24 hrs post dose by LC/MS/MS method. The class given is ADME, organism-based. As to conditions: in vivo.
Data set [2] deals with Rattus norvegicus. Kind of data set: Apparent clearance during terminal phase in Sprague-Dawley rat at 50 mg/kg, po administered as single dose measured after 0.08 to 24 hrs post dose by LC/MS/MS method. It is filed as ADME, organism-based. As to conditions: in vivo.
Data set [3] relates to Rattus norvegicus. Kind of data set: VRT (0 to t) in Sprague-Dawley rat at 50 mg/kg, po administered as single dose measured after 0.08 to 24 hrs post dose by LC/MS/MS method. The class given is ADME, organism-based. As to conditions: in vivo.
Data set [4] in a line: Cmax in Sprague-Dawley rat at 50 mg/kg, po administered as single dose measured after 0.08 to 24 hrs post dose by LC/MS/MS method. The class given is ADME, organism-based. Also noted: dose 50 mg/kg, route oral. The conditions noted are these: in vivo.
Data set [5] can be described thus: AUC (0 to t) in Sprague-Dawley rat at 50 mg/kg, po administered as single dose measured after 0.08 to 24 hrs post dose by LC/MS/MS method. The class given is ADME, organism-based. Also noted: dose 50 mg/kg, time 0.08-24 hr, route oral. The conditions noted are these: in vivo.
Data set [6] addresses T1, Nuclear factor erythroid 2-related factor 2 (Homo sapiens) (UniProt Q16236).
T1 sequence (whole entry): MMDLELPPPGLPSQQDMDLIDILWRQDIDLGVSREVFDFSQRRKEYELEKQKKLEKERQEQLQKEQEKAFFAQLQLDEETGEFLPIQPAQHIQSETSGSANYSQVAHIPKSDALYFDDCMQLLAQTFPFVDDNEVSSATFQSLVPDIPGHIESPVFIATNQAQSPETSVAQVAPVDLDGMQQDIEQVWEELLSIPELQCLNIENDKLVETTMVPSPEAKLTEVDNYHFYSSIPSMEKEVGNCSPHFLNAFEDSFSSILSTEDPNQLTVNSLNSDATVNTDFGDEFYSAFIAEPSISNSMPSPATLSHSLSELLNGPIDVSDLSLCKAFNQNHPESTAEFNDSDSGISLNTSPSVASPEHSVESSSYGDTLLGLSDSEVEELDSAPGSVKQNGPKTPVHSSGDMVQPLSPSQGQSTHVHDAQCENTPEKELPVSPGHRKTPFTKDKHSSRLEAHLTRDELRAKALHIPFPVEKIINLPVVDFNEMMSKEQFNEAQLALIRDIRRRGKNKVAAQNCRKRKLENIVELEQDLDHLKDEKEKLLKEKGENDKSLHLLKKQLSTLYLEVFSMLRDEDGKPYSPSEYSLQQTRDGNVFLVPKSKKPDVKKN
Briefly: Activation of Nrf2 (unknown origin) expressed in human HepG2 cells at 10 uM incubated for 6 hrs by ARE-driven luciferase reporter gene assay relative to untreated control. The class given is cell-based. For orientation: A reporter such as luciferase makes a cellular process visible.

Data set [7] deals with Mus musculus. Kind of data set: Hepatoprotective activity against CCL4-induced liver damage in ICR mouse assessed as LDH level at 50 mg/kg, po administered once daily for 7 consecutive days followed by CCL4 challenge 6 hrs after last dose and measured 24 hrs post CCL4 injection (reference value: 2818 U/L). It is filed as functional.
The target in data set [8] is T1, Nuclear factor erythroid 2-related factor 2 (Homo sapiens). Kind of data set: Activation of Nrf2 (unknown origin) expressed in human HepG2 cells assessed as cytoprotection against CCL4-induced cell injury by measuring increase in cell viability at 2.5 to 20 uM relative to untreated control. It is filed as cell-based.
For data set [9], the system named is Mus musculus. Briefly: Hepatoprotective activity against CCL4-induced liver damage in ICR mouse assessed as reduction in liver lesions by measuring neutrophil infiltration at 50 mg/kg, po administered once daily for 7 consecutive days followed by CCL4 challenge 6 hrs after last dose and measured 24 hrs post CCL4 injection by hematoxylin-eosin staining based light microscopy. The class given is functional, organism-based.

A short description of data set [10]: MRT (0 to t) in Sprague-Dawley rat at 50 mg/kg, po administered as single dose measured after 0.08 to 24 hrs post dose by LC/MS/MS method. As to conditions: in vivo. It is filed as ADME, organism-based.
Data set [11] can be described thus: MRT (0 to infinity) in Sprague-Dawley rat at 50 mg/kg, po administered as single dose measured after 0.08 to 24 hrs post dose by LC/MS/MS method. It is filed as ADME, organism-based. As to conditions: in vivo.
For data set [12], the system named is Rattus norvegicus. Kind of data set: AUC (0 to infinity) in Sprague-Dawley rat at 50 mg/kg, po administered as single dose measured after 0.08 to 24 hrs post dose by LC/MS/MS method. The class given is ADME, organism-based. Also noted: dose 50 mg/kg, time infinity, route oral. The conditions noted are these: in vivo.
Data set [13] concerns Mus musculus. Briefly: Hepatoprotective activity against CCL4-induced liver damage in ICR mouse assessed as aspartate aminotransferase level at 50 mg/kg, po administered once daily for 7 consecutive days followed by CCL4 challenge 6 hrs after last dose and measured 24 hrs post CCL4 injection (reference value: 625 U/L). It is filed as functional.
Data set [14] concerns Mus musculus. Briefly: Hepatoprotective activity against CCL4-induced liver damage in ICR mouse assessed as reduction in liver lesions by measuring necrosis at 50 mg/kg, po administered once daily for 7 consecutive days followed by CCL4 challenge 6 hrs after last dose and measured 24 hrs post CCL4 injection by hematoxylin-eosin staining based light microscopy. It is filed as functional, organism-based.

Data set [15] is described as follows: Tmax in Sprague-Dawley rat at 50 mg/kg, po administered as single dose measured after 0.08 to 24 hrs post dose by LC/MS/MS method. The class given is ADME, organism-based. As to conditions: in vivo.
The subject of data set [16] is Mus musculus. Briefly: Hepatoprotective activity against CCL4-induced liver damage in ICR mouse assessed as alanine aminotransferase level at 50 mg/kg, po administered once daily for 7 consecutive days followed by CCL4 challenge 6 hrs after last dose and measured 24 hrs post CCL4 injection (reference value: 1025 U/L). It is filed as functional.
Data set [17] can be described thus: Apparent volume of distribution during terminal phase in Sprague-Dawley rat at 50 mg/kg, po administered as single dose measured after 0.08 to 24 hrs post dose by LC/MS/MS method. The class given is ADME, organism-based. The conditions noted are these: in vivo, read-out: Vz/F.
For data set [18], the system named is Rattus norvegicus. Briefly: VRT (0 to infinity) in Sprague-Dawley rat at 50 mg/kg, po administered as single dose measured after 0.08 to 24 hrs post dose by LC/MS/MS method. It is filed as ADME, organism-based. As to conditions: in vivo.
Data set [19] has as its target T1, Nuclear factor erythroid 2-related factor 2 (Homo sapiens). Kind of data set: Activation of Nrf2 (unknown origin) expressed in human HepG2 cells at 2.5 to 10 uM incubated for 6 hrs by ARE-driven luciferase reporter gene assay. It is filed as cell-based.
Data set [20] concerns HepG2. Briefly: Cytotoxicity in human HepG2 cells expressing Nrf2/ARE-driven luciferase at 10 to 40 uM incubated for 6 hrs. The conditions noted are these: hepg2, 6 h. The class given is cell-based.
The subject of data set [21] is Mus musculus. Briefly: Hepatoprotective activity against CCL4-induced liver damage in ICR mouse assessed as reduction in liver lesions by measuring ballooning degeneration at 50 mg/kg, po administered once daily for 7 consecutive days followed by CCL4 challenge 6 hrs after last dose and measured 24 hrs post CCL4 injection by hematoxylin-eosin staining based light microscopy. The class given is functional, organism-based.

Data set [22] deals with Mus musculus. Kind of data set: Hepatoprotective activity against CCL4-induced liver damage in ICR mouse assessed as reduction in liver lesions by measuring neutrophil infiltration at 100 mg/kg, po administered once daily for 7 consecutive days followed by CCL4 challenge 6 hrs after last dose and measured 24 hrs post CCL4 injection by hematoxylin-eosin staining based light microscopy. It is filed as functional, organism-based.

The test system of data set [23] is Mus musculus. Briefly: Hepatoprotective activity against CCL4-induced liver damage in ICR mouse assessed as reduction in liver lesions by measuring ballooning degeneration at 100 mg/kg, po administered once daily for 7 consecutive days followed by CCL4 challenge 6 hrs after last dose and measured 24 hrs post CCL4 injection by hematoxylin-eosin staining based light microscopy. The class given is functional, organism-based.

The subject of data set [24] is Mus musculus. Kind of data set: Hepatoprotective activity against CCL4-induced liver damage in ICR mouse assessed as reduction in liver lesions by measuring necrosis at 100 mg/kg, po administered once daily for 7 consecutive days followed by CCL4 challenge 6 hrs after last dose and measured 24 hrs post CCL4 injection by hematoxylin-eosin staining based light microscopy. The class given is functional, organism-based.

Data set [25] concerns Mus musculus. Briefly: Hepatoprotective activity against CCL4-induced liver damage in ICR mouse assessed as alanine aminotransferase level at 100 mg/kg, po administered once daily for 7 consecutive days followed by CCL4 challenge 6 hrs after last dose and measured 24 hrs post CCL4 injection (reference value: 1025 U/L). The class given is functional, organism-based.
Data set [26] deals with Mus musculus. Kind of data set: Hepatoprotective activity against CCL4-induced liver damage in ICR mouse assessed as LDH level at 100 mg/kg, po administered once daily for 7 consecutive days followed by CCL4 challenge 6 hrs after last dose and measured 24 hrs post CCL4 injection (reference value: 2818 U/L). The class given is functional, organism-based.
For data set [27], the system named is Mus musculus. Kind of data set: Hepatoprotective activity against CCL4-induced liver damage in ICR mouse assessed as aspartate aminotransferase level at 100 mg/kg, po administered once daily for 7 consecutive days followed by CCL4 challenge 6 hrs after last dose and measured 24 hrs post CCL4 injection (reference value: 625 U/L). It is filed as functional, organism-based.

For data set [28], the system named is HepG2. Briefly: Cytotoxicity in human HepG2 cells expressing Nrf2/ARE-driven luciferase at 20 to 40 uM incubated for 6 hrs. The conditions noted are these: hepg2, 6 h. The class given is cell-based.
Data set [29] concerns the target T1, Nuclear factor erythroid 2-related factor 2 (Homo sapiens). Kind of data set: Activation of Nrf2 (unknown origin) expressed in human HepG2 cells at 2.5 to 20 uM incubated for 6 hrs by ARE-driven luciferase reporter gene assay. The class given is cell-based.

Regarding `C=CC(C)(C)c1cc(/C=C/C(=O)c2ccc(O)cc2)c(OC)cc1O` [LICOAGROCHACONE A], the half-life (usually the time in which the quantity being followed falls by half) in data set [1] was 620 min. For the same compound, the CLz/F in data set [2] is 23.39 L/h/kg. In addition, the “VRT(t)” value in [3] is listed as 40.43 hr2. In addition, the highest concentration (Cmax) (commonly the maximum level reached in the sampled fluid or tissue) in data set [4] came to 96.8 ng/mL. For the same compound, the AUC(0-t) – broadly, the area under the concentration-time curve up to a stated or last time point – in data set [5] was 837 ng·h/mL. The compound further had a fold change (FC) in data set [6] of 4.07. The Activity was 800 - 1200 U/L in [7]; over 60% in data set [8]; 150 - 180 U/L in data set [13]; 70 - 100 U/L in [16]; “Dose-dependent effect” in data set [19]; “Toxic” in [20]. Besides, the outcome in data set [9], in data set [14] and in data set [21] was Active. Besides, in data set [10], the MRT last (usually a mean duration of stay, worked out from the concentration-time curve) is 8.48 h. The MRT inf – broadly, a mean duration of stay, worked out from the concentration-time curve – in data set [11] was 14.5 h. The AUC (as a rule, concentration integrated over time) in data set [12] worked out at 993.88 µg·h/L. The Tmax – broadly, the time at which the peak concentration occurs – in data set [15] amounted to 2.5 h. Also, the Vd/F in data set [17] stood at 370 L/kg. In addition, the VRT in data set [18] amounted to 256.28 hr2.

Consider SILYMARIN, for which the result in data set [22], in data set [23] and in data set [24] was Active. The Activity lay within 70 to 100 U/L in data set [25], 800 to 1200 U/L in data set [26] and 150 to 180 U/L in data set [27].

`COc1c(/C=C/C(=O)c2ccc(O)cc2)cc(CC=C(C)C)c(O)c1O` displayed a fold change (FC) in data set [6] of 3.39. Also, the Activity result is “Dose-dependent effect” in data set [19] and “Toxic” in data set [20].

On to `COc1cc(O)ccc1/C=C/C(=O)c1ccc(O)cc1` [ECHINATIN], for which the half-life in data set [1] was 439 min. For the same compound, the CLz/F in data set [2] stood at 20.97 L/h/kg. Besides, the “VRT(t)” value in data set [3] turned out to be 9.97 hr2. This compound came in with a Cmax in data set [4] of 228 ng/mL. This compound also yielded an AUC(0-t) in data set [5] of 686 ng·h/mL. For the same compound, in data set [6], the fold change (FC) was 4.09. For the same compound, the Activity in data set [7] is 800 - 1200 U/L; in [8] it was over 60%; in data set [13] it was 150 - 180 U/L; in data set [16], 70 - 100 U/L; in data set [28] it was “Toxic”; in [29] it was “Dose-dependent effect”. The outcome in data set [9], in data set [14] and in data set [21] was Active. Besides, in [10], the MRT last came to 3.98 h. Besides, in data set [11], the MRT inf came to 3.98 h. The AUC in data set [12] is 1154.92 µg·h/L. The Tmax in [15] came to 0.5 h. For the same compound, the Vd/F in [17] was 154 L/kg. In data set [18], this compound came in with a VRT of 217.15 hr2.

In turn, `COc1c(/C=C/C(=O)c2ccc(O)cc2)ccc(O)c1O` showed a fold change (FC) in [6] of 5.17. The Activity in data set [7] was 800 - 1200 U/L; in data set [8] it was over 60%; in [13], 150 - 180 U/L; in data set [16], 70 - 100 U/L; in [28], “Toxic”; in [29] it was “Dose-dependent effect”. The outcome in [9], in [14] and in [21] was Active.
